Laboratory results: ChEMBL document CHEMBL1152560, “Substituted 2-arylbenzothiazoles as kinase inhibitors: hit-to-lead optimization” (Bioorg Med Chem, 2009)

Tests used:
[1] = biological target: CDK3/cyclin E (Homo sapiens) (UniProt P24864+O96020+Q00526); assay: Residual activity of CDK3/Cyclin E at 10 uM by microplate scintillation counting; assay type: protein-complex assay
[2] = biological target: T1, Serine/threonine-protein kinase VRK1 (Homo sapiens) (UniProt Q99986); assay: Residual activity of VRK1 at 1 uM by microplate scintillation counting
T1 sequence (whole entry): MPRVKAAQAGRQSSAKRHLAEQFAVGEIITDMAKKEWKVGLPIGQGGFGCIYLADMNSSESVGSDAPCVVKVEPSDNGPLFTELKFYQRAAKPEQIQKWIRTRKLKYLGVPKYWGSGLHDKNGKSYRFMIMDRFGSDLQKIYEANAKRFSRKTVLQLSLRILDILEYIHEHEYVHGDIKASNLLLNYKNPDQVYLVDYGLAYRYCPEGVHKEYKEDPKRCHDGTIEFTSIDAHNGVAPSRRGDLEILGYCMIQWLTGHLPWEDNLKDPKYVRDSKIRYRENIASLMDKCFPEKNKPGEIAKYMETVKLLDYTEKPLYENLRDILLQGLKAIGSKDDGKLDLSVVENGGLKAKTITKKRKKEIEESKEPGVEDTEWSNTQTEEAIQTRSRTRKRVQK

[3] = biological target: T2, TGF-beta receptor type-1 (Homo sapiens) (UniProt P36897); assay: Residual activity of TGFB-R1 at 1 uM by microplate scintillation counting
T2 sequence (whole entry): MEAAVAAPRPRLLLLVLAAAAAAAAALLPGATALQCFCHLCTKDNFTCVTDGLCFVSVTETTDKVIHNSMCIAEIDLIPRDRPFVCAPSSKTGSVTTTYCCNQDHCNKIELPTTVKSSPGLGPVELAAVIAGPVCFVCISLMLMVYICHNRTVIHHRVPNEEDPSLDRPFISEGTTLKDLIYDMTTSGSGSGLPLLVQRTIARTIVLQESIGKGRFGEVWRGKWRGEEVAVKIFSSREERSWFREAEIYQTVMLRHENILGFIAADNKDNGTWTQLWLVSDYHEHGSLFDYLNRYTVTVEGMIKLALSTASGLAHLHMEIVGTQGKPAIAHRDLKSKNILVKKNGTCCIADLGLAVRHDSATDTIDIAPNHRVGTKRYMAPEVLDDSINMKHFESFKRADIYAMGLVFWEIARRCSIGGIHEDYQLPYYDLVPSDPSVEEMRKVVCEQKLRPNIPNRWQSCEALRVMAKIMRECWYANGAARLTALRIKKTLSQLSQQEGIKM

[4] = biological target: T3, Serine/threonine-protein kinase TAO2 (Homo sapiens) (UniProt Q9UL54); assay: Residual activity of TAOK2 at 0.1 uM by microplate scintillation counting
T3 sequence (whole entry): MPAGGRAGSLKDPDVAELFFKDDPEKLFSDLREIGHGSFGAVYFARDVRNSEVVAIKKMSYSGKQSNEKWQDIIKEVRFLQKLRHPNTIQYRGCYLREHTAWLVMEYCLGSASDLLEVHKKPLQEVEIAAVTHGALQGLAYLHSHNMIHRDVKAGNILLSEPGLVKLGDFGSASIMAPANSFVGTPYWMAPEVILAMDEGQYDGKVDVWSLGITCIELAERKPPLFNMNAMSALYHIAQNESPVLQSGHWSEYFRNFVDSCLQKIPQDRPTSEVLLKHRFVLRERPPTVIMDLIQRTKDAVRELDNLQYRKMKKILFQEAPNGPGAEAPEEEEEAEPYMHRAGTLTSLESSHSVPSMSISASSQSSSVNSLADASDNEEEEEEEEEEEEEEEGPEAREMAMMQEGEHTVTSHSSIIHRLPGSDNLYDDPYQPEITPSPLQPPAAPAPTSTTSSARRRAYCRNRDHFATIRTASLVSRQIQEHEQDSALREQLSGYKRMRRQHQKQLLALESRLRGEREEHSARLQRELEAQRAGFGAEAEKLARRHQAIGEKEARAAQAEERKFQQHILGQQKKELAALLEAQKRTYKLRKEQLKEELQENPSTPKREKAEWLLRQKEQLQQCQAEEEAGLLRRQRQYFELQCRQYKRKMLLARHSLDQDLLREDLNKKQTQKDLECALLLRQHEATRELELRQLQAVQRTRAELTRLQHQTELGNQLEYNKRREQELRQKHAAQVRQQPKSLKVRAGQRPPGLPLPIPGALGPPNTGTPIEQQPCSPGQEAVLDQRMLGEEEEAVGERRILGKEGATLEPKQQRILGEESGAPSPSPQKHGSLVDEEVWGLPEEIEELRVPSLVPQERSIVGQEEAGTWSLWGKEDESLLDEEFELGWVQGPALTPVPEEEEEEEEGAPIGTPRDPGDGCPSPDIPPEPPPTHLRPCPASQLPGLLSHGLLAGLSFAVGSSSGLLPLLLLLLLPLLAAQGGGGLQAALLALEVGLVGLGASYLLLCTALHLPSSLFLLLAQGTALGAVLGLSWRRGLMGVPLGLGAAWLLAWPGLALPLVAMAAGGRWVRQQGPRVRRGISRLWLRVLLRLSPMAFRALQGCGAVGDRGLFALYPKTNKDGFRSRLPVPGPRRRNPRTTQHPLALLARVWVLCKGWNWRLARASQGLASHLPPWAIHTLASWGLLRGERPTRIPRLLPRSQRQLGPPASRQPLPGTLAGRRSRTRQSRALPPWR

[5] = biological target: Tyrosine-protein kinase Yes (Homo sapiens) (UniProt P07947); assay: Residual activity of YES at 10 uM by microplate scintillation counting
Sequence of Tyrosine-protein kinase Yes (Homo sapiens) (P07947 2-543 limits assumed): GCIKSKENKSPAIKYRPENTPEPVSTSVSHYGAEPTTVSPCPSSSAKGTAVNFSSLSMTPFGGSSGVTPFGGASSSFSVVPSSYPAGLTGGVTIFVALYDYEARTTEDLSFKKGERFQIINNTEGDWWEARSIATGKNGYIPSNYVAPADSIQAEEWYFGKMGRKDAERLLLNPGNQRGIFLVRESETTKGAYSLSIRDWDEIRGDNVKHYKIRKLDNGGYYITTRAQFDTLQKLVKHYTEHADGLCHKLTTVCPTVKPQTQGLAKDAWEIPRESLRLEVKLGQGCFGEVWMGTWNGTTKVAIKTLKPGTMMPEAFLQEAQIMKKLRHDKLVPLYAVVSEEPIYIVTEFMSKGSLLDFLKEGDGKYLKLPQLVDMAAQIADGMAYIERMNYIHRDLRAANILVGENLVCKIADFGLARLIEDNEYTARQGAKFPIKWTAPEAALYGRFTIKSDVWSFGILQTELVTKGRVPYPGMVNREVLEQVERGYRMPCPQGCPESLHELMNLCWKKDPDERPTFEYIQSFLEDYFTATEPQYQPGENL

Sequence of CDK3/cyclin E (Homo sapiens) (O96020 whole entry, looked up): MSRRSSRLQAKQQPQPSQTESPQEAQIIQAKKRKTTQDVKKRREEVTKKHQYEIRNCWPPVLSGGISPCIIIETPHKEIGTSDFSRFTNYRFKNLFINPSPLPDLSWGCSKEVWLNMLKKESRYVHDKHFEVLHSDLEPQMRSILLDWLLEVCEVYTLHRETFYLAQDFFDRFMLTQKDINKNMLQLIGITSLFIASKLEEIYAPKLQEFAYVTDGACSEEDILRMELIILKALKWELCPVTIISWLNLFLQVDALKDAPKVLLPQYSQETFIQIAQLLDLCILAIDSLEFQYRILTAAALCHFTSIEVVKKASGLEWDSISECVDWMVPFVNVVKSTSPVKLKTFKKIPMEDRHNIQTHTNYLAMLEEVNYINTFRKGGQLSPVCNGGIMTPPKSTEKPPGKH
Sequence of CDK3/cyclin E (Homo sapiens) (P24864 whole entry, looked up): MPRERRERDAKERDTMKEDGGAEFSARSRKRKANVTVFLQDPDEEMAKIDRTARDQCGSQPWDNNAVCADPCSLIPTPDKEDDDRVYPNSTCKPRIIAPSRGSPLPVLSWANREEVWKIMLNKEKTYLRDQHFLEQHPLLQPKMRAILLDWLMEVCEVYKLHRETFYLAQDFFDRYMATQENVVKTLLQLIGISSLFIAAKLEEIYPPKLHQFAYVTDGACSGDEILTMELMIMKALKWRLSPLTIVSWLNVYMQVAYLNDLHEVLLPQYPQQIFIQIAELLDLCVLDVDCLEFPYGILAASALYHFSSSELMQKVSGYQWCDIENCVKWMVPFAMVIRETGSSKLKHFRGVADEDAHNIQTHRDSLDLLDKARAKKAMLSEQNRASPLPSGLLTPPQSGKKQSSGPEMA
Sequence of CDK3/cyclin E (Homo sapiens) (Q00526 whole entry, looked up): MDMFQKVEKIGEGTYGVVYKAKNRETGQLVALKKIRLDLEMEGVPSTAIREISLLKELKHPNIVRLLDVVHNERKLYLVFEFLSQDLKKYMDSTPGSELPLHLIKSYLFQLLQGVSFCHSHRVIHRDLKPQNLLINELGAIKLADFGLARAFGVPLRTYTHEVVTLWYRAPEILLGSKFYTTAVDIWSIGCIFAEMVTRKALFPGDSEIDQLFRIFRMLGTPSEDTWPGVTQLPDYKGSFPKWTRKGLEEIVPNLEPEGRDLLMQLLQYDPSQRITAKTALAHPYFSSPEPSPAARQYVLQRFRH

| Compound | residual activity [1] | residual activity [2] | residual activity [3] | residual activity [4] | residual activity [5] |
| --- | --- | --- | --- | --- | --- |
| COc1cc2c(Oc3ccc(-c4nc5ccccc5s4)cc3)ncnc2cc1OCCCN1CCN(C)CC1 | 130% | 103% | 103% | 92% | 55% |
| COc1cc2c(Oc3ccc(-c4nc5ccccc5s4)cc3F)ncnc2cc1OCCCN1CCN(C)CC1 | 119% | 98% | 107% | 108% | 14% |
| COc1cc2c(Oc3ccc(-c4nc5ccccc5s4)cc3)ncnc2cc1OCCCN1CCCC1 | 113% | 95% | 98% | 102% | 101% |
